Each structure is given as a SMILES string. Some results are limits rather than exact numbers.

What all share (assay): Generic kinase assay (33P-ATP, Myelin Basic Protein)
Holding throughout (assay type): biochemical

One assay has as its target p56Lck (Homo sapiens, UniProt P06239). Conditions: 1 h; class symbol: % inhibition at 10 μM or IC50; read-out: Inhibitory effect on target p56Lck. The gist of the method:
(§1)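 Myelin basic protein was phosphorylated with [γ-33P]ATP plus unlabelled ATP (4 µM in the three-fold concentrated mix) in Tris-HCl pH 7.5, MgCl2 and DTT. Kinase was titrated to about 10% ATP turnover, and reactions ran 1 h at room temperature before EDTA stop. Incorporated 33P was captured on filter plates washed with 0.75% H3PO4 and counted by scintillation.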

The next assay concerns the target EGFR (Homo sapiens, UniProt P00533). Conditions: class symbol: % inhibition at 10 μM or IC50. The gist of the method: as §1
A further assay addresses c-kit (Homo sapiens, UniProt P10721). Conditions: 1 h; class symbol: % inhibition at 10 μM or IC50; read-out: Inhibitory effect on target c-kit. The procedure, abridged: as §1
The next assay has as its target cRaf (Homo sapiens, UniProt P04049). Conditions: 1 h; class symbol: % inhibition at 10 μM or IC50; read-out: Inhibitory effect on target cRaf. The procedure, abridged: as §1
A further assay has as its target CDK2/CyclinA (Homo sapiens, UniProt P24941). As to conditions: class symbol: % inhibition at 10 μM or IC50. The gist of the method:
as §1

A further assay has as its target GSK-3beta (Homo sapiens, UniProt P49841). As to conditions: class symbol: % inhibition at 10 μM or IC50. The gist of the method: as §1
The next assay relates to PDGFR. As to conditions: class symbol: % inhibition at 10 μM or IC50. The procedure, abridged: as §1
In another assay the target is Abl (Homo sapiens, UniProt P00519). Conditions: 1 h; class symbol: % inhibition at 10 μM or IC50; read-out: Inhibitory effect on target Abl. The gist of the method: as §1
Abl, sequence (P00519 whole entry, species assumed): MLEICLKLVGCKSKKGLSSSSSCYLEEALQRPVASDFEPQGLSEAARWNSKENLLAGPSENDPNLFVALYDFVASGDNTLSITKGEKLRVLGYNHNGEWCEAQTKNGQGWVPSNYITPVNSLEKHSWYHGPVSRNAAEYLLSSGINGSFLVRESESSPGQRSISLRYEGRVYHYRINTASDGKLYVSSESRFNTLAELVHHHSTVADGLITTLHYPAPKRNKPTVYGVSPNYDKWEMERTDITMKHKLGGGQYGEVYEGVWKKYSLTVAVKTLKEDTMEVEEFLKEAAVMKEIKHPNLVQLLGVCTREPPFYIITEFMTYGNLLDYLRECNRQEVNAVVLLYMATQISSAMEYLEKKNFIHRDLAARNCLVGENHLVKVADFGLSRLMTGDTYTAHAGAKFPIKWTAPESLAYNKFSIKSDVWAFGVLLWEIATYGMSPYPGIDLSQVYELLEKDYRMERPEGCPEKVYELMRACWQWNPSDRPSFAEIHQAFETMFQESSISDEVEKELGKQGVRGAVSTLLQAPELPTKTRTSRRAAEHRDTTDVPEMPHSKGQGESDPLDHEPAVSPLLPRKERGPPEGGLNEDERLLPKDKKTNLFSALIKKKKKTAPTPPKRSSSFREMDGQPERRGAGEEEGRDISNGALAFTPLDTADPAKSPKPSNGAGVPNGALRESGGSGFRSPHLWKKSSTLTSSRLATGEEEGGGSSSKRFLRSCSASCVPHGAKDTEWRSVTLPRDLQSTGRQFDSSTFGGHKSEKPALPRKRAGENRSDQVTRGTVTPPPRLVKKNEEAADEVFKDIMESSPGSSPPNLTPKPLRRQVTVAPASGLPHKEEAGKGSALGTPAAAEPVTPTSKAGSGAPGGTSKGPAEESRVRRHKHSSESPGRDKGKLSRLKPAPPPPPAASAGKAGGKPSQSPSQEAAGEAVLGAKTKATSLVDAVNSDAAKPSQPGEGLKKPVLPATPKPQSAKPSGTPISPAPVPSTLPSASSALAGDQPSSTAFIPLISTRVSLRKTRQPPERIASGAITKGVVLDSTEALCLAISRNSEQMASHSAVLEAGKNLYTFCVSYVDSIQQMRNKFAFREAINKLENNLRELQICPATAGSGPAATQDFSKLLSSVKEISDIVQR
The target of a further assay is RICK (Homo sapiens, UniProt O43353). Conditions: class symbol: % inhibition at 10 μM or IC50. The gist of the method:
as §1

For a further assay, the target named is ROCK 2 (Homo sapiens, UniProt O75116). As to conditions: class symbol: % inhibition at 10 μM or IC50. The procedure, abridged: as §1
The target in another assay is p38 (Homo sapiens, UniProt Q16539). As to conditions: class symbol: % inhibition at 10 μM or IC50. The gist of the method: as §1
In the next assay the target is T1, RIP (Homo sapiens, UniProt Q13546).
T1 sequence (Q13546 1-671): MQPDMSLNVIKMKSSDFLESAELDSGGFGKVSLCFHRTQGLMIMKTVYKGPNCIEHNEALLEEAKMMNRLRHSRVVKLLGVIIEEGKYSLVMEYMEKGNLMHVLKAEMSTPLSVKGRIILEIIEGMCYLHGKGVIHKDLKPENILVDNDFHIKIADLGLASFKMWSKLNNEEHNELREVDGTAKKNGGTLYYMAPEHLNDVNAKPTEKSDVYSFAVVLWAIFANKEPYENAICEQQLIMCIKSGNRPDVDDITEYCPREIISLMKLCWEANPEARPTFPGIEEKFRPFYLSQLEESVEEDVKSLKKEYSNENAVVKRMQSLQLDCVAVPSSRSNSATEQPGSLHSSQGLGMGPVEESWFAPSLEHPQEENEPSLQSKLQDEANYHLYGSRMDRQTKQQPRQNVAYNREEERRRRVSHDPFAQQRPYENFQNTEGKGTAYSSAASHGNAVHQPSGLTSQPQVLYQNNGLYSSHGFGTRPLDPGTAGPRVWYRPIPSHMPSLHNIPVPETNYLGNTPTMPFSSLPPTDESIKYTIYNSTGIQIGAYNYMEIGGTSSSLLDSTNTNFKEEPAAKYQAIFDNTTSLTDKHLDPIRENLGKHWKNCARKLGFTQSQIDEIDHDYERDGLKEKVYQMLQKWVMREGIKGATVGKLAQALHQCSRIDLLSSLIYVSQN
As to conditions: class symbol: % inhibition at 10 μM or IC50. The gist of the method: as §1

RICK, sequence (O43353 whole entry, species assumed): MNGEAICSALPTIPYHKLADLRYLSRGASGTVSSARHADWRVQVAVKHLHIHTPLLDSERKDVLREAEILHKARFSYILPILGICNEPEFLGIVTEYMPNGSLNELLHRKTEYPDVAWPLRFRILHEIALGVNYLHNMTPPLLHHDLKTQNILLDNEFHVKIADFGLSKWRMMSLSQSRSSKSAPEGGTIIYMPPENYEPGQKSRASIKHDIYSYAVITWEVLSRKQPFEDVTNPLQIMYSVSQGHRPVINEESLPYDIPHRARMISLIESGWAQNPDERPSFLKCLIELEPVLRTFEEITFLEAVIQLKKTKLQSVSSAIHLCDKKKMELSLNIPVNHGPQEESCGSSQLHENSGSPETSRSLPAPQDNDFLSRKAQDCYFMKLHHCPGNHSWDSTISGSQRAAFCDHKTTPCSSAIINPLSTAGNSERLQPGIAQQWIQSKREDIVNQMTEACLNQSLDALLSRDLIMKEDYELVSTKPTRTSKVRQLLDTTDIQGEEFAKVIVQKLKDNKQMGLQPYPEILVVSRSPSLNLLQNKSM
EGFR, sequence (P00533 25-1210, species assumed): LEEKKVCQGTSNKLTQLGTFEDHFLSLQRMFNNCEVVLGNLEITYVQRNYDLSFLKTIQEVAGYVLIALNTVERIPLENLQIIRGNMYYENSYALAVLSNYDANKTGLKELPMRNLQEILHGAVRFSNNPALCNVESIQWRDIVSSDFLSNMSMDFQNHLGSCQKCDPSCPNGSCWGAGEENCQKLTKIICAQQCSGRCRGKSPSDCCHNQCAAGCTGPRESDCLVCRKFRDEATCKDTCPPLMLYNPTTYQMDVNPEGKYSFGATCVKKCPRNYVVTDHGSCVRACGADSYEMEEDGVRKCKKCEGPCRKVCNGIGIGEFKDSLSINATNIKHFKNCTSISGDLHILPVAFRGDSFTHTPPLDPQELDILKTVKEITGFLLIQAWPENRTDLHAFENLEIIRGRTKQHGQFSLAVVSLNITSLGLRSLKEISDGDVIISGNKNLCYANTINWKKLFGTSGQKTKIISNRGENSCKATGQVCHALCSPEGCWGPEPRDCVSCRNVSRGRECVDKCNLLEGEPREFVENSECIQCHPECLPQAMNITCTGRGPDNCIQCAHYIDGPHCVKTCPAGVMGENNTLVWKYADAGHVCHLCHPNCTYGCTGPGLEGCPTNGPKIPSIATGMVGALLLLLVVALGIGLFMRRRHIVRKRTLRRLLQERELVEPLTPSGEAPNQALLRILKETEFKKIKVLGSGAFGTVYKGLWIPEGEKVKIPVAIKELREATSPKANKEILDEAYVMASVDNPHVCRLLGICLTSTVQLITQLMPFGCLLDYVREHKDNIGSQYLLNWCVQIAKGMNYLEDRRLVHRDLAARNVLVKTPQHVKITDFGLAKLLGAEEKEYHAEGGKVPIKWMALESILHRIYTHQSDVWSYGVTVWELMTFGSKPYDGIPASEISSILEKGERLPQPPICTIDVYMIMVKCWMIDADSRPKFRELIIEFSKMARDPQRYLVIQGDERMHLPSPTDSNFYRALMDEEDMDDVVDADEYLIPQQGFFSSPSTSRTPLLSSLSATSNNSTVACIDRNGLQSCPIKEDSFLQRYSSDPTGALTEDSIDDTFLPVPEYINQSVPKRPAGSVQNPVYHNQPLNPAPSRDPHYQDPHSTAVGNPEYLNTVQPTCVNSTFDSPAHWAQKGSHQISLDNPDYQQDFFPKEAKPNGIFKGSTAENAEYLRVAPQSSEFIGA
p56Lck, sequence (P06239 whole entry, species assumed): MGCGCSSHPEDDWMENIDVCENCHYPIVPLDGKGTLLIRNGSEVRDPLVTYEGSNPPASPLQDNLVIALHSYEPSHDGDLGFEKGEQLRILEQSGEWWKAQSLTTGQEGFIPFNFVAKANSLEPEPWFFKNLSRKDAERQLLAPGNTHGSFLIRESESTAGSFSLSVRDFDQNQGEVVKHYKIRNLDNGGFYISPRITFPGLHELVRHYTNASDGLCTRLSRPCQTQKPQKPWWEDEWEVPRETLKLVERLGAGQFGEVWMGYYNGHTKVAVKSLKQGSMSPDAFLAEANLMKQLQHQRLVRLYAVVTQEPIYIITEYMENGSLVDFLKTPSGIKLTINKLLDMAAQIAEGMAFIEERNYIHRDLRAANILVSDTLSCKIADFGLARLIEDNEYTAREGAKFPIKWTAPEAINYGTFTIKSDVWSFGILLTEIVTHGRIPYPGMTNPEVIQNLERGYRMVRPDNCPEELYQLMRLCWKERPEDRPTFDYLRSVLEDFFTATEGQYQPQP
c-kit, sequence (P10721 26-976): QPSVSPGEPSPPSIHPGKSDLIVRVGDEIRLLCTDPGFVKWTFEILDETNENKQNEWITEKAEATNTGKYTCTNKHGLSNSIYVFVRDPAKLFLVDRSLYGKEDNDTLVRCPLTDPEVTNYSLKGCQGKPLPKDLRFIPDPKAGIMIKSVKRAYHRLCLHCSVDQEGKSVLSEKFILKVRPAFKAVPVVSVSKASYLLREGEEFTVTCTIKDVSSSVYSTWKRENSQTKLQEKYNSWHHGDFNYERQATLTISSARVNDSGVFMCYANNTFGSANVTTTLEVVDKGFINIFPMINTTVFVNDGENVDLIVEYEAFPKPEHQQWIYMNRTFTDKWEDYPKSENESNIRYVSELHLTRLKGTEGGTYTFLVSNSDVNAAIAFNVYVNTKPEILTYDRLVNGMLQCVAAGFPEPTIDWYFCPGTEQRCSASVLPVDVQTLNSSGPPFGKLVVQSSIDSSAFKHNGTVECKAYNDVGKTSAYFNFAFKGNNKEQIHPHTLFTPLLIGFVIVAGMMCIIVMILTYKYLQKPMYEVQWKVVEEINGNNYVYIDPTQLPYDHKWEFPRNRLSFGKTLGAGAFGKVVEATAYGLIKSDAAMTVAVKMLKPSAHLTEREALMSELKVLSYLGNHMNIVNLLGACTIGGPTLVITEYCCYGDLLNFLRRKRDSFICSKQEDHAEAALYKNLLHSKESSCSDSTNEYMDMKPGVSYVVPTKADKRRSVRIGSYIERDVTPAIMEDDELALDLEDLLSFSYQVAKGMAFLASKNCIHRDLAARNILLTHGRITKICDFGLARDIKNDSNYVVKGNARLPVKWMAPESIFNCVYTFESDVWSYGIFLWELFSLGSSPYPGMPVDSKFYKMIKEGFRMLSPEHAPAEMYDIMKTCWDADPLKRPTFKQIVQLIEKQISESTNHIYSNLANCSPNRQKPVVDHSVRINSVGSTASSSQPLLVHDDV
cRaf, sequence (P04049 whole entry, species assumed): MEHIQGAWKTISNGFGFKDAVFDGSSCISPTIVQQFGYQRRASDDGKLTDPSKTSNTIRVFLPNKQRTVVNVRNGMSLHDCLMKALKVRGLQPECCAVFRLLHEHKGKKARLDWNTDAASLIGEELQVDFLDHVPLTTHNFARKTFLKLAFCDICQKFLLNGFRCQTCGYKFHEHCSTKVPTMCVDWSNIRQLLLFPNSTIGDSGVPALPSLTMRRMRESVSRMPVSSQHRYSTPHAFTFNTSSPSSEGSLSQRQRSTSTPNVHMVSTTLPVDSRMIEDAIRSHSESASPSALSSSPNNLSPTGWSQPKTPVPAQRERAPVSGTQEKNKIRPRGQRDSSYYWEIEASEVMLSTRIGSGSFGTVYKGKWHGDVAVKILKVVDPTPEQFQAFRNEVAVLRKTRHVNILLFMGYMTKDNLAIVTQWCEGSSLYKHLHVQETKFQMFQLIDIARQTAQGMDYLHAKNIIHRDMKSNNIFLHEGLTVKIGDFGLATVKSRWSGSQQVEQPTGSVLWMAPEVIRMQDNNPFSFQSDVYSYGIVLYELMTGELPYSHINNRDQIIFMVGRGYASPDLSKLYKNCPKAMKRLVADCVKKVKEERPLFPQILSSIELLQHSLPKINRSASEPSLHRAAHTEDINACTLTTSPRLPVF

In the case of `Oc1ccc(-c2cncc(NCc3cccc(O)c3)c2)cc1` [Compound 212, 3-{[5-(4-Hydroxy-phenyl)-pyridin-3-ylamino]-methyl}-phenol], the inhibition at 10 µM was more than 90% at p56Lck, more than 90% at c-kit, 50 to 90% on cRaf and 50 to 90% on Abl. Also, on EGFR, the “Inhibitory effect on target EGFR” value is listed as “A (A: 50-90% inhibition at 10 μM enzyme concentration)”. The “Inhibitory effect on target CDK2/CyclinA” value on CDK2/CyclinA is recorded as “B (B: >90% inhibition at 10 μM enzyme concentration)”. For the same compound, the “Inhibitory effect on target GSK-3beta” value on GSK-3beta is reported as “A (A: 50-90% inhibition at 10 μM enzyme concentration)”. Further, the “Inhibitory effect on target PDGFR” value in the assay with PDGFR is recorded as “A (A: 50-90% inhibition at 10 μM enzyme concentration)”. Besides, the “Inhibitory effect on target RICK” value at RICK was “C (C: IC50 measured: <1 μM)”. For the same compound, at ROCK 2, the “Inhibitory effect on target ROCK 2” value is recorded as “C (C: IC50 measured: <1 μM)”.

As for `CC(=O)Nc1cccc(-c2cncc(NCc3cccc(O)c3)c2)c1` [Compound 221, N-{3-[5-(3-Hydroxy-benzylamino)-pyridin-3-yl]-phenyl}-acetamide], the inhibition at 10 µM on p56Lck is more than 90%; at c-kit it was more than 90%; on cRaf, 50 to 90%; at Abl, 50 to 90%. At EGFR, the “Inhibitory effect on target EGFR” value was “A (A: 50-90% inhibition at 10 μM enzyme concentration)”. For the same compound, the “Inhibitory effect on target p38” value at p38 was “A (A: 50-90% inhibition at 10 μM enzyme concentration)”. Also, the “Inhibitory effect on target PDGFR” value in the assay with PDGFR is “A (A: 50-90% inhibition at 10 μM enzyme concentration)”. The “Inhibitory effect on target RICK” value on RICK is listed as “C (C: IC50 measured: <1 μM)”.

As to `Clc1cccc(Nc2cncc(-c3ccncc3)c2)c1` [Compound 166, [3,4′]Bipyridinyl-5-yl-(3-chloro-phenyl)-amine], the inhibition at 10 µM on RICK (1 h, read-out: Inhibitory effect on target RICK) lay within 50 to 90%. Besides, the “Inhibitory effect on target RIP” value on RIP was “A (A: 50-90% inhibition at 10 μM enzyme concentration)”.

For the origin of these results see US20090196912A1, “Pyridinylamines” (GPC Botech AG, priority 2004, published 2009).
